Data reported in ChEMBL document CHEMBL3217609, “Discovery and characterization of novel potent PARP-1 inhibitors endowed with neuroprotective properties: From TIQ-A to [sequence]” (Medchemcomm, 2011).
One block for each compound: values may come before it.

How the values were obtained:
Rattus norvegicus [1] = test: Neuroprotective activity in permanent middle cerebral artery occlusion Sprague-Dawley rat model assessed as reduction in brain infarct volume at 1 mg/kg, iv 3 times at 30 mins, 3.5 hrs and 6 hrs after occlusion relative to vehicle treated control; type: functional
Rattus norvegicus [2] = test: Neuroprotective activity in transient middle cerebral artery occlusion Sprague-Dawley rat model assessed as reduction in brain infarct volume at 0.1 mg/kg, ip 3 times, starting 4 hrs after occlusion relative to vehicle treated control; type: functional; settings: route intraperitoneal
[3] = Volume of distribution in Sprague-Dawley rat at 10 mg/kg, iv; type: ADME, organism-based; design: dose 10 mg/kg, route intravenous; settings: in vivo
[4] = Ratio of drug level in brain to plasma in Sprague-Dawley rat at 10 mg/kg, iv; type: ADME, organism-based; design: dose 10 mg/kg, route intravenous; settings: read-out: BPR
[5] = Half life in rat liver microsomes; type: ADME
Cortical neurone = test: Neuroprotective activity in mouse mixed cortical cells assessed as reduction in oxygen-glucose deprivation-induced LDH release; type: functional, cell-based
[6] = Clearance in rat hepatocytes assessed per 10^6 cells; type: ADME, cell-based, Hepatocyte; settings: read-out: CLH
hERG (KCNH2) = hERG (KCNH2) (Homo sapiens, UniProt Q12809); test: Inhibition of human ERG at 10 uM
[7] = biological target: Poly [ADP-ribose] polymerase 2 (Mus musculus, UniProt O88554); test: Inhibition of mouse recombinant PARP2 assessed as radioactivity incorporated from [adenine-2,8-3H]NAD into proteins by liquid scintillation spectrometry
[8] = Fraction unbound in Sprague-Dawley rat brain at 10 mg/kg, iv; type: ADME, organism-based; design: dose 10 mg/kg, route intravenous
[9] = Kinetic aqueous solubility of the compound at pH 7.4 at 23 degC; type: physicochemical; settings: buffer, read-out: Kinetic_solubility
[10] = Cmax in Sprague-Dawley rat brain at 10 mg/kg, iv; type: ADME, organism-based; design: dose 10 mg/kg, route intravenous
Cytochrome P450 2D6 = Cytochrome P450 2D6 (Homo sapiens, UniProt P10635); test: Inhibition of CYP2D6 (unknown origin); type: ADME
Rattus norvegicus [11] = test: Clearance in Sprague-Dawley rat at 10 mg/kg, iv; type: ADME, organism-based; design: dose 10 mg/kg, route intravenous; settings: in vivo
[12] = biological target: T1, Poly [ADP-ribose] polymerase 1 (Homo sapiens, UniProt P09874); test: Inhibition of human PARP1 in HEK293 cells assessed as prevention of in MNNG-induced ATP depletion; type: cell-based
[13] = Clearance in human hepatocytes assessed per 10^6 cells; type: ADME, cell-based, Hepatocyte; settings: read-out: CLH
Rattus norvegicus [14] = test: Neuroprotective activity in transient middle cerebral artery occlusion Sprague-Dawley rat model assessed as reduction in brain infarct volume at 1 mg/kg, ip 3 times, starting 4 hrs after occlusion relative to vehicle treated control; type: functional; settings: route intraperitoneal
Rattus norvegicus [15] = test: Neuroprotective activity in transient middle cerebral artery occlusion Sprague-Dawley rat model assessed as reduction in brain infarct volume at 10 mg/kg, ip 3 times, starting 4 hrs after occlusion relative to vehicle treated control; type: functional; settings: route intraperitoneal
[16] = Half life in Sprague-Dawley rat at 10 mg/kg, iv; type: ADME, organism-based; design: dose 10 mg/kg, route intravenous; settings: in vivo
[17] = Half life in human liver microsomes; type: ADME
[18] = Permeability of the compound by PAMPA; type: physicochemical; settings: read-out: permeability
[19] = biological target: T2, Poly [ADP-ribose] polymerase tankyrase-1 (Homo sapiens, UniProt O95271); test: Inhibition of tankyrase-1 function in human HeLa cells; type: cell-based
T2 sequence (O95271 whole entry): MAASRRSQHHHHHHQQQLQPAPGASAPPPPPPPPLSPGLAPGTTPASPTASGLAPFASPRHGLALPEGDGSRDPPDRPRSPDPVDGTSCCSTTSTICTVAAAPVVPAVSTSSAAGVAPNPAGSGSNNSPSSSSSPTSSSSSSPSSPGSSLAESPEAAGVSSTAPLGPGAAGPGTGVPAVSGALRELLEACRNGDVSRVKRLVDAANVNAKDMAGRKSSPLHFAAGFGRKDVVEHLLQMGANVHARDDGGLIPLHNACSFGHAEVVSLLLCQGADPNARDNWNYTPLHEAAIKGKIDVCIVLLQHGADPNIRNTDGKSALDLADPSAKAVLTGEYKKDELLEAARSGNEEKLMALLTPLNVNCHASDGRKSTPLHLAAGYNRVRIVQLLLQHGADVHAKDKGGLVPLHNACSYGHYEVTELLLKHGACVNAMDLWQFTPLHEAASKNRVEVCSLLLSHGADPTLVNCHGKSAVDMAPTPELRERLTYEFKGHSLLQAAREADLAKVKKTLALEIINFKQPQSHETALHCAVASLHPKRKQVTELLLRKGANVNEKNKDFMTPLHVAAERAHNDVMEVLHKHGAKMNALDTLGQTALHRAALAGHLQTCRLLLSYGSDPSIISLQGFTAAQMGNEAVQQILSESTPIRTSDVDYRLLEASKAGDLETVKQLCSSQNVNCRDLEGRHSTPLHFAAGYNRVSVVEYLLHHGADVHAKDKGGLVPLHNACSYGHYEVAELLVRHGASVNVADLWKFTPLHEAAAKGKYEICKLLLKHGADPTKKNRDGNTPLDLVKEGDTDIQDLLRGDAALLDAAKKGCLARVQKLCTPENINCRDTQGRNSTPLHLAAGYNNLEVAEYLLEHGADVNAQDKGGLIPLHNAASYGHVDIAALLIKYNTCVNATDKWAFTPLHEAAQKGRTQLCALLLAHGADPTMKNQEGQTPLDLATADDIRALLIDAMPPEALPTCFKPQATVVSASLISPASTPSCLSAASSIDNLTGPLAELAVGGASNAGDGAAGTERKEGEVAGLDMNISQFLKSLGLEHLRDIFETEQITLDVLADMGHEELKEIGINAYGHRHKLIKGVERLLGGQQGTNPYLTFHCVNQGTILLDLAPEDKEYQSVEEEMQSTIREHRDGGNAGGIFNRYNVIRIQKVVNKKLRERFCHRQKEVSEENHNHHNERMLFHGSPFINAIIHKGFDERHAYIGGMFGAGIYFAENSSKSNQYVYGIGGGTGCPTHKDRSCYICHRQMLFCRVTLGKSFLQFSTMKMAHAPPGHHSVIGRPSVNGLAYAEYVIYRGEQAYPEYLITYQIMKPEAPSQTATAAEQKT

Brain = test: Free drug level in Sprague-Dawley rat brain at 10 mg/kg, iv; type: ADME, organism-based; design: dose 10 mg/kg, route intravenous; settings: in vivo
[20] = AUC (0 to infinity) in Sprague-Dawley rat at 10 mg/kg, iv; type: ADME, organism-based; design: time infinity, dose 10 mg/kg, route intravenous; settings: plasma
[21] = biological target: T1, Poly [ADP-ribose] polymerase 1; test: Inhibition of human recombinant PARP1 by fluorescence based multiwell assay

T1 sequence (P09874 whole entry): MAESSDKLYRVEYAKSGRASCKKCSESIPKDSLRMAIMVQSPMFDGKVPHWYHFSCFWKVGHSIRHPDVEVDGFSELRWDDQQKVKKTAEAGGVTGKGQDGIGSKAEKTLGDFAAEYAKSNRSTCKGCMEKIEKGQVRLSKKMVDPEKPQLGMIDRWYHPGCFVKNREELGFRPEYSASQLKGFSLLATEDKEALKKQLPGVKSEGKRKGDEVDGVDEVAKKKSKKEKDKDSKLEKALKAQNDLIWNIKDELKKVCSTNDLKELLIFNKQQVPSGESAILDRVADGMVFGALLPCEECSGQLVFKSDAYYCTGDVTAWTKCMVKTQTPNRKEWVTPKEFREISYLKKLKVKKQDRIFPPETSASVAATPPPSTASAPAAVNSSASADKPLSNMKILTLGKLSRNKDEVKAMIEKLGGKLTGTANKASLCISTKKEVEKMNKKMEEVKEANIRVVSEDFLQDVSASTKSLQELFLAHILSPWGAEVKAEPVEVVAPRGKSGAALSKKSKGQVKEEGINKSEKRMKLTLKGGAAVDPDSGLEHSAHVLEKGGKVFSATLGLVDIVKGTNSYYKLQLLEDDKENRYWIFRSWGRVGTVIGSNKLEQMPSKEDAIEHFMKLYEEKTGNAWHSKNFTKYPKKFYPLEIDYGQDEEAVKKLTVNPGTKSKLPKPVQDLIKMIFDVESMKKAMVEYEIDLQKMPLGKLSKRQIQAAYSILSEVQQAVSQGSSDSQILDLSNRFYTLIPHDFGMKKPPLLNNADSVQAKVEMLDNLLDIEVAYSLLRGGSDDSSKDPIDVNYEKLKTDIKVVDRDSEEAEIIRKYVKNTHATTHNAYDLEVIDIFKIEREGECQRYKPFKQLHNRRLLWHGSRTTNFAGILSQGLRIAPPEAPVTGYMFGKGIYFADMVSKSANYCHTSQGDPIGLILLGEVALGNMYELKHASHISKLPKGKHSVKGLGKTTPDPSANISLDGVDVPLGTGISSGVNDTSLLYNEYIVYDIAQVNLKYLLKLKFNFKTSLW
Sequence of Poly [ADP-ribose] polymerase 2 (O88554 whole entry): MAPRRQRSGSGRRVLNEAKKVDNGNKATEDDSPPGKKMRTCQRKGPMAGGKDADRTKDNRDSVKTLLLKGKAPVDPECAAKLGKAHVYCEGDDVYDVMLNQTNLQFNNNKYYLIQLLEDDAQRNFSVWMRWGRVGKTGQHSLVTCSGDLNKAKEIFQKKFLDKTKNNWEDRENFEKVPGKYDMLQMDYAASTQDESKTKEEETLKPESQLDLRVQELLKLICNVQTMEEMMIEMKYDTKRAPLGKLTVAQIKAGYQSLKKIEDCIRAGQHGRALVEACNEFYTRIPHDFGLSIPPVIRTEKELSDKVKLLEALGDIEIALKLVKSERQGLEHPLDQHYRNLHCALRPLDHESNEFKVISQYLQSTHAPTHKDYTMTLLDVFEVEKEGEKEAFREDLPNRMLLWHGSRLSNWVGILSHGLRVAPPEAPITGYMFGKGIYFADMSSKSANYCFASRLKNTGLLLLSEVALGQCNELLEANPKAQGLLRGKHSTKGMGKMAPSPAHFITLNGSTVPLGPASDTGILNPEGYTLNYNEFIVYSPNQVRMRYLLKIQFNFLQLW
Sequence of Cytochrome P450 2D6 (P10635 whole entry): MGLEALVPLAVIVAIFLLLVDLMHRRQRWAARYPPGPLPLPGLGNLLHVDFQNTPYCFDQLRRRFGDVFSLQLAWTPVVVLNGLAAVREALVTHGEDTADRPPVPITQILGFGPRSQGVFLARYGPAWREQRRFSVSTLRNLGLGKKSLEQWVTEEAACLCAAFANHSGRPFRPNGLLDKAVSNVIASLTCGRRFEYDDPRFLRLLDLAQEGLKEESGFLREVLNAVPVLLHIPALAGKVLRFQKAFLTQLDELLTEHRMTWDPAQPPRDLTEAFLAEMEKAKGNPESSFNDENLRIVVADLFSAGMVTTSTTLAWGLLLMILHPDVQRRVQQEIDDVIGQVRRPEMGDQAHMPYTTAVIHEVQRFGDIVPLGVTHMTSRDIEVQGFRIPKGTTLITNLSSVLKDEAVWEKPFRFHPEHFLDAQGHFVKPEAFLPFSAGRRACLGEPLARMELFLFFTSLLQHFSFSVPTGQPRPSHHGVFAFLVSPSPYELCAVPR
Sequence of hERG (KCNH2) (Q12809 whole entry): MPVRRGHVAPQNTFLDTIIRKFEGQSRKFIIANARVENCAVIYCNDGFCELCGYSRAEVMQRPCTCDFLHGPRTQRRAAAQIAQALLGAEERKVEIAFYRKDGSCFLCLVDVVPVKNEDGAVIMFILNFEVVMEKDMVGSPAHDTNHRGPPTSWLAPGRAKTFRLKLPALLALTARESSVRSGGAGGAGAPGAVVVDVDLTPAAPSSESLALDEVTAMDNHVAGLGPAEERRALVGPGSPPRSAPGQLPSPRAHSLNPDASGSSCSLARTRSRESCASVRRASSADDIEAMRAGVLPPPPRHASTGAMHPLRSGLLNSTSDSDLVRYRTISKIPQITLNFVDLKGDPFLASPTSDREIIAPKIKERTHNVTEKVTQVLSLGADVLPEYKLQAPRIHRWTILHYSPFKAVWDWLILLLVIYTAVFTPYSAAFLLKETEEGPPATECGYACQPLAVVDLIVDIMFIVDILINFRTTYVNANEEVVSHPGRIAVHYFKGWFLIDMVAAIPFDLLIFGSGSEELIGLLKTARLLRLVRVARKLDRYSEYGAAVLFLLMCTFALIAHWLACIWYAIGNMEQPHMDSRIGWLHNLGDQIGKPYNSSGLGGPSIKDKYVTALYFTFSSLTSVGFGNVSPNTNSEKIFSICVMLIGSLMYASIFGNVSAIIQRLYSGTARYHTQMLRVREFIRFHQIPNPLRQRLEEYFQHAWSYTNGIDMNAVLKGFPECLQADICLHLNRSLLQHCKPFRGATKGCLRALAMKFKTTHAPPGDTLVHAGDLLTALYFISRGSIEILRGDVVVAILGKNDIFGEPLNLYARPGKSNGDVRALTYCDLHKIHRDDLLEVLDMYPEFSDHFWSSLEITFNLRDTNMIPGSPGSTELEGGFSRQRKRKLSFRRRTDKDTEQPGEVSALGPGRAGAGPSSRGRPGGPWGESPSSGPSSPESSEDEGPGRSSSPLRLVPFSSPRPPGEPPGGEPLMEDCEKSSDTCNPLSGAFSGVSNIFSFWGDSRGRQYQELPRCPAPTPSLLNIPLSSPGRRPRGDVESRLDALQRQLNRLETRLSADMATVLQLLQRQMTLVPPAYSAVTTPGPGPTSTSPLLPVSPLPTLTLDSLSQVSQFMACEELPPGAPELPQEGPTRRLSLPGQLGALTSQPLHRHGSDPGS

Vd [3]: 2.1 L/kg
Kp [4]: 0.26
half-life [5]: 3 min
EC50 (Cortical neurone): 300 nM
hepatocyte CLint [6]: 26.4 µL/min/1e6 cells
IC50 [7]: 38 nM
fraction unbound [8]: 0.13
solubility kinetic [9]: 70 µg/mL
Cmax [10]: 678 nM
IC50 (Cytochrome P450 2D6): 170000 nM
clearance (Rattus norvegicus [11]): 69 mL/min/kg
EC50 [12]: 14 nM
hepatocyte CLint [13]: 22.2 µL/min/1e6 cells
half-life [16]: 48 min
half-life [17]: 30 min
Papp [18]: 4.6 ×10⁻⁶ cm/s
IC50 [19]: > 100000 nM
Drug uptake(free) (Brain): 87 nM
AUC(0-inf) [20]: 1680 ng·h/mL
IC50 [21]: 29 nM
Structure (SMILES): Br.CN(C)Cc1cc2c([nH]c(=O)c3cccc(O)c32)s1
inhibition in vivo at 1 mg/kg (Rattus norvegicus [1]): 42%
inhibition in vivo at 0.1 mg/kg (Rattus norvegicus [2]): 17.5%
inhibition at 10 µM (hERG (KCNH2)): 14%
inhibition in vivo at 1 mg/kg (Rattus norvegicus [14]): 55%
inhibition in vivo at 10 mg/kg (Rattus norvegicus [15]): 62%

EC50 (Cortical neurone): 2370 nM
EC50 [12]: 945 nM
Structure (SMILES): O=c1[nH]c2ccccc2c2ccccc12

IC50 [7]: 600 nM
solubility kinetic [9]: < 100 µg/mL
IC50 [21]: 900 nM
Structure (SMILES): O=c1[nH]c2sccc2c2ccccc12

IC50 [7]: 300 nM
IC50 [19]: > 100000 nM
IC50 [21]: 180 nM
Structure (SMILES): CN(C)Cc1cc2c([nH]c(=O)c3ccccc32)s1
